The text below walks through data of ChEMBL document CHEMBL1821626, “Novel 2-thioxothiazolidin-4-one inhibitors of bacterial MurD ligase targeting D-Glu- and diphosphate-binding sites” (Eur J Med Chem, 2011).

The nature of one assay: Inhibition of Escherichia coli MurD ligase after 15 mins by colorimetric malachite green assay.
`O=C(O)CC[C@H](NC(=O)c1ccc(/C=C2\SC(=S)NC2=O)cc1)C(=O)O`: it took 10 µM to reach half-maximal inhibition (IC50).

`O=C(O)CC[C@H](NC(=O)c1cccc(/C=C2\SC(=S)NC2=O)c1)C(=O)O`: it took 172 µM to reach half-maximal inhibition (IC50).

As for `O=C(O)CC[C@@H](NC(=O)c1ccc(/C=C2\SC(=S)NC2=O)cc1)C(=O)O`, half-maximal inhibition (IC50) required 45 µM.

Consider `O=C(O)CC[C@@H](NC(=O)c1cccc(/C=C2\SC(=S)NC2=O)c1)C(=O)O`, for which the IC50 (usually the concentration that inhibits the measured activity by half) is 89 µM.

The nature of another assay: Inhibition of Escherichia coli MurD ligase assessed as residual activity at 250 uM after 15 mins by colorimetric malachite green assay.
On to `O=C(O)CC[C@H](NC(=O)c1ccc(/C=C2\SC(=O)NC2=O)cc1)C(=O)O`, for which the Activity is 93%.

As to `O=C(O)CC[C@@H](NC(=O)c1ccc(/C=C2\SC(=O)NC2=O)cc1)C(=O)O`, the Activity amounted to 96%.

In the case of `O=C(O)CC[C@H](NC(=O)c1cccc(/C=C2\SC(=O)NC2=O)c1)C(=O)O`, the Activity was found to be 96%.

With `O=C(O)CC[C@@H](NC(=O)c1cccc(/C=C2\SC(=O)NC2=O)c1)C(=O)O`, the Activity is 97%.

A short description of another assay: Inhibition of Escherichia coli MurD ligase assessed as residual activity at 500 uM after 15 mins by colorimetric malachite green assay.
In the case of `O=C(O)CC[C@@H](NC(=O)c1ccc(/C=C2\NC(=O)NC2=O)cc1)C(=O)O`, the Activity was 97%.

As for `CN1C(=O)/C(=C/c2ccc(C(=O)N[C@H](CCC(=O)O)C(=O)O)cc2)SC1=S`, the Activity amounted to 85%.

As for `COC(=O)CC[C@@H](NC(=O)c1cccc(CC2SC(=S)NC2=O)c1)C(=O)OC` (stereo partly specified), the Activity stood at 91%.

Regarding `O=C(O)CC[C@@H](NC(=O)c1cc(/C=C2\SC(=S)NC2=O)ccc1F)C(=O)O`, the Activity is 67%.

Take `O=C(O)CC[C@@H](NC(=O)c1ccc(/C=C2\SC(=S)N(CC(=O)O)C2=O)cc1)C(=O)O`: the Activity worked out at 96%.

For `O=C(O)CC[C@@H](NC(=O)c1cccc(CC2SC(=S)NC2=O)c1)C(=O)O` (stereo partly specified), the Activity came to 91%.

As to `O=C(O)CC[C@@H](NC(=O)c1ccc(CC2SC(=S)NC2=O)cc1)C(=O)O` (stereo partly specified), the Activity was 96%.

Take `N=C1NC(=O)/C(=C/c2ccc(C(=O)N[C@H](CCC(=O)O)C(=O)O)cc2)S1`: the Activity is 95%.
